Experimental data reported in ChEMBL document CHEMBL1124450, “Identification of structural requirements for analogues of atrial natriuretic peptide (ANP) to discriminate between ANP receptor subtypes” (J Med Chem, 1989).
Residues, ends and D or L forms follow the SMILES beside them.

What was measured:
[1] = molecular target: T1, Atrial natriuretic peptide receptor (Homo sapiens, UniProt P20594+P16066+P17342); assay: Inhibitory activity against guanylate cyclase coupled receptor binding site in rabbit lung by using [125I]-ANP-(103-126); format: protein assay, Oryctolagus cuniculus; conditions: target entry is the homologue from another species
T1 sequence (P20594 whole entry): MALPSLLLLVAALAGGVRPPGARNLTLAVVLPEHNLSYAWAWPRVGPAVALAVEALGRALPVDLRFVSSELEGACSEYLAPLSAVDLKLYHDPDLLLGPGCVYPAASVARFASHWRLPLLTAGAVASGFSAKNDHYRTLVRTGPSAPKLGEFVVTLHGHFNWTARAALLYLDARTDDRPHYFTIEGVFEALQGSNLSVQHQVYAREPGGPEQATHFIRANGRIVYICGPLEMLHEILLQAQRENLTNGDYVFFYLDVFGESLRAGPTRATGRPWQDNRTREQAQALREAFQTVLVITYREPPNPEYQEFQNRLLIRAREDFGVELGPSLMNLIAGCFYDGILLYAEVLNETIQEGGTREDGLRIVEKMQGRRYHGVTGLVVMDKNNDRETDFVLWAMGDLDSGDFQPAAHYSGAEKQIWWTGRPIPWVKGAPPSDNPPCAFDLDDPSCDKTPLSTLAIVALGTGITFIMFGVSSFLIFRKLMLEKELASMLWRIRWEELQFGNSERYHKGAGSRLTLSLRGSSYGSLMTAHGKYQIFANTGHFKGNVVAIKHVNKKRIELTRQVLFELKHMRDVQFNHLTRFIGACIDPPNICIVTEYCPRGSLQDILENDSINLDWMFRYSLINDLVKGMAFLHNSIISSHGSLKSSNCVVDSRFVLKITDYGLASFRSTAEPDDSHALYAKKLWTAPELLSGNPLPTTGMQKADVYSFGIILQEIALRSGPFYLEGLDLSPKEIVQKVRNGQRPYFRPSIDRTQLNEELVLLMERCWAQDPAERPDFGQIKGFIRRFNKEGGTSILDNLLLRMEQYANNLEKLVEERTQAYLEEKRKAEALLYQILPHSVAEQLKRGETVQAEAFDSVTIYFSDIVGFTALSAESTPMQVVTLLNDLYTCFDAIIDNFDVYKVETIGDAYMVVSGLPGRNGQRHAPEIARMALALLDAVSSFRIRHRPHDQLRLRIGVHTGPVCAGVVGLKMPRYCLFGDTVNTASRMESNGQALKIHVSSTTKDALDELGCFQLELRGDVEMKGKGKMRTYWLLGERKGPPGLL
T1 sequence (P16066 whole entry): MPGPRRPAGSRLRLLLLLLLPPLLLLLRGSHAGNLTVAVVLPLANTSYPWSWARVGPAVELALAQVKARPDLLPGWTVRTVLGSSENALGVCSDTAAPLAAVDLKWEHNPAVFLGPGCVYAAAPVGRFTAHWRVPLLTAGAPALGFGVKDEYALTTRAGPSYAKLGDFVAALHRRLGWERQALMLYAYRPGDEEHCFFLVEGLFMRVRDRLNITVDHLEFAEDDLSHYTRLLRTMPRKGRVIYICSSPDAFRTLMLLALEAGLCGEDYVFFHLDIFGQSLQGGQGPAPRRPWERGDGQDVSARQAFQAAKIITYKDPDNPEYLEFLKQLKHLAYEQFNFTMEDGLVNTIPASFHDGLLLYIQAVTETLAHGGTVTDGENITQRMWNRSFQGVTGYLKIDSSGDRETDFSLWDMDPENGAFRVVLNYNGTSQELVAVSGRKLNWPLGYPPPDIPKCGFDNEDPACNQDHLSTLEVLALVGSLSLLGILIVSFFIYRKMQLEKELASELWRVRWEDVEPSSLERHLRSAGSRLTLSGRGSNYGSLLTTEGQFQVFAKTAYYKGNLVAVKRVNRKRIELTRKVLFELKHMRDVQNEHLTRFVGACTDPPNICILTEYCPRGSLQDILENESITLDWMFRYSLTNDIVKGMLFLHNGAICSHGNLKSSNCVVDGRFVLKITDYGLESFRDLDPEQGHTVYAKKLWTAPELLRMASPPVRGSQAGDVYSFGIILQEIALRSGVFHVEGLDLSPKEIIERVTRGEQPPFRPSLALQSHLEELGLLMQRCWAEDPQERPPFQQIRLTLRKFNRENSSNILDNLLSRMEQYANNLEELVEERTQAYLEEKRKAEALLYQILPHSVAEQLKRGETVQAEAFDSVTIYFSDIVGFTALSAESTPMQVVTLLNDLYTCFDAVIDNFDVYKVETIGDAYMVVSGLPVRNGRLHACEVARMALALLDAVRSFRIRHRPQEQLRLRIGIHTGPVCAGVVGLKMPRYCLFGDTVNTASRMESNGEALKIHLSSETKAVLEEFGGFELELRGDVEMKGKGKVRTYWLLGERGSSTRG
T1 sequence (P17342 whole entry): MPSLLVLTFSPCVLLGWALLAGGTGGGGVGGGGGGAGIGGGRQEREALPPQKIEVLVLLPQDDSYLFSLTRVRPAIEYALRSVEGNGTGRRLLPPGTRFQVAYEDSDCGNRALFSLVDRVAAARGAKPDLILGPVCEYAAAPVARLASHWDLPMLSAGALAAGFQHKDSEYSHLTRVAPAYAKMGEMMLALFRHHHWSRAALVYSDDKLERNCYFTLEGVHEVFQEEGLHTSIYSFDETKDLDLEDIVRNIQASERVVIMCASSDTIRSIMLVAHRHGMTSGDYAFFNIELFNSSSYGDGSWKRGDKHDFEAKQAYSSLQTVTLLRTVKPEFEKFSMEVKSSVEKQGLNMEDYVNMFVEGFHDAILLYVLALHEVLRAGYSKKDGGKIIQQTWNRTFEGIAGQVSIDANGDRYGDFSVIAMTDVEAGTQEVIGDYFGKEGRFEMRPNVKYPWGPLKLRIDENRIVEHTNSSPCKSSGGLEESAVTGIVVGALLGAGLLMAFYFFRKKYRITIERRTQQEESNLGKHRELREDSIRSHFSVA

[2] = Inhibitory activity against non-guanylate cyclase receptor binding site in rabbit lung by using [125I]-ANP-(103-126); set-up: species or system Oryctolagus cuniculus
[3] = Ratio of IC50 of guanylate cyclase coupled receptor binding and non-guanylate cyclase coupled binding

| Compound | IC50 [1] | IC50 [2] | Ratio [3] |
| --- | --- | --- | --- |
| CC[C@H](C)[C@H](NC(=O)[C@H](CCCN=C(N)N)NC(=O)[C@H](CC(=O)O)NC(=O)[C@@H](NC(=O)[C@H](CCCN=C(N)N)NC(=O)CNC(=O)CNC(=O)[C@H](Cc1ccccc1)NC(=O)[C@@H](N)CS)[C@@H](C)CC)C(=O)NCC(N)=O (H-CFGGRIDRIG-NH2) | > 0.1 µM | 0.00028 µM | > 357 |
| CC[C@H](C)[C@@H]1NC(=O)[C@H](CCCN=C(N)N)NC(=O)[C@H](CC(=O)O)NC(=O)[C@H]([C@@H](C)CC)NC(=O)[C@H](CCCN=C(N)N)NC(=O)CNC(=O)CNC(=O)[C@H](Cc2ccccc2)NC(=O)[C@@H](NC(=O)[C@H](CO)NC(=O)[C@@H](N)CO)CSSC[C@@H](C(=O)N[C@@H](CC(N)=O)C(=O)N[C@@H](CO)C(=O)O)NC(=O)CNC(=O)[C@H](CC(C)C)NC(=O)CNC(=O)[C@H](CO)NC(=O)[C@H](CCC(N)=O)NC(=O)[C@H](C)NC(=O)CNC1=O (HELM PEPTIDE1{S.S.C.F.G.G.R.I.D.R.I.G.A.Q.S.G.L.G.C.N.S}$PEPTIDE1,PEPTIDE1,3:R3-19:R3$$$V2.0) | 0.036 µM | 0.00078 µM | 46 |
| CC[C@H](C)[C@@H]1NC(=O)[C@H](CCCN=C(N)N)NC(=O)[C@H](CC(=O)O)NC(=O)[C@H]([C@@H](C)CC)NC(=O)[C@H](CCCN=C(N)N)NC(=O)CNC(=O)CNC(=O)[C@H](Cc2ccccc2)NC(=O)[C@@H](NC(=O)[C@H](CO)NC(=O)[C@H](CO)NC(=O)[C@H](CCCN=C(N)N)NC(=O)[C@H](CCCN=C(N)N)NC(=O)[C@H](CC(C)C)NC(=O)[C@@H](N)CO)CSSC[C@@H](C(N)=O)NC(=O)[C@H](CCC(N)=O)NC(=O)[C@H](C)NC(=O)CNC1=O (HELM PEPTIDE1{S.L.R.R.S.S.C.F.G.G.R.I.D.R.I.G.A.Q.C.[am]}$PEPTIDE1,PEPTIDE1,7:R3-19:R3$$$V2.0) | 0.052 µM | 0.00016 µM | 312 |
| CC[C@H](C)[C@@H]1NC(=O)[C@H](CCCN=C(N)N)NC(=O)[C@H](CC(=O)O)NC(=O)[C@H]([C@@H](C)CC)NC(=O)[C@H](CCCN=C(N)N)NC(=O)CNC(=O)[C@@H](NC(=O)[C@H](CO)NC(=O)[C@@H](N)CO)CSSC[C@H](C(=O)N[C@@H](CC(N)=O)C(=O)N[C@@H](CO)C(=O)N[C@@H](Cc2ccccc2)C(=O)N[C@@H](CCCN=C(N)N)C(N)=O)NC(=O)CNC(=O)[C@H](CC(C)C)NC(=O)CNC(=O)[C@H](CO)NC(=O)CNC1=O | > 0.1 µM | 0.0001 µM | > 1000 |
| CC(C)C[C@H](NC(=O)[C@@H](N)CO)C(=O)N[C@@H](CCCN=C(N)N)C(=O)N[C@@H](CCCN=C(N)N)C(=O)N[C@@H](CO)C(=O)N[C@@H](CO)C(=O)N[C@@H](CS)C(=O)N[C@@H](Cc1ccccc1)C(=O)NCC(=O)NCC(=O)N[C@@H](CCCN=C(N)N)C(=O)O (H-SLRRSSCFGGR-OH) | > 0.1 µM | > 0.1 µM | – |
| CC[C@H](C)[C@H](NC(=O)[C@H](CCCN=C(N)N)NC(=O)[C@H](CC(=O)O)NC(=O)[C@@H](NC(=O)[C@H](CCCN=C(N)N)NC(=O)CNC(=O)CNC(=O)[C@H](Cc1ccccc1)NC(=O)[C@@H](N)CO)[C@@H](C)CC)C(=O)NCC(=O)N[C@@H](C)C(=O)N[C@@H](CCC(N)=O)C(=O)N[C@@H](CO)C(=O)NCC(=O)N[C@@H](CC(C)C)C(=O)NCC(=O)N[C@@H](CC(N)=O)C(=O)N[C@@H](CO)C(=O)N[C@@H](Cc1ccccc1)C(=O)N[C@@H](CCCN=C(N)N)C(=O)N[C@@H](Cc1ccc(O)cc1)C(=O)O (H-SFGGRIDRIGAQSGLGNSFRY-OH) | > 0.1 µM | 0.00035 µM | > 285 |
| CC[C@H](C)[C@H](NC(=O)[C@H](CCCN=C(N)N)NC(=O)[C@H](CC(=O)O)NC(=O)[C@@H](NC(=O)[C@H](CCCN=C(N)N)NC(=O)CNC(C)=O)[C@@H](C)CC)C(=O)NCC(N)=O [GRIDRIG] (Ac-GRIDRIG-NH2) | > 0.1 µM | 0.065 µM | > 1.5 |
